For series [1] the following is noted: second class: low solubility and high permeability; first class: high solubility and high permeability; cited from earlier work.
The conditions of series [2]: release of free hormone; cited from earlier work.
For series [3], the system named is triple negative breast cancer MDA-MB-231 cell line. Put plainly: cell proliferation in MDA-MB-231. The format is cell-based.

For `CC(C)(C#N)c1cc(Cn2cncn2)cc(C(C)(C)C#N)c1` [anastrazole], the “class according to the biopharmaceutical classification system (BCS)” value in series [1] is given as “first class”.

For the compound `C[C@]12CC[C@@H]3c4ccc(OS(N)(=O)=O)cc4CC[C@H]3[C@@H]1CCC2=O` [estrone sulfamate], the uterotropic activity entry in series [2] is reported as “strong uterotropic activity”.

For the compound `COc1cc([C@@H]2c3cc4c(cc3[C@@H](O[C@@H]3O[C@@H]5CO[C@@H](C)O[C@H]5[C@H](O)[C@H]3O)[C@H]3COC(=O)[C@H]23)OCO4)cc(OC)c1O` [etoposide, reference compound], the “inhibition of cell proliferation” value in series [3] is listed as “similar”.

In the case of `N#Cc1ccc(C(c2ccc(C#N)cc2)n2cncn2)cc1` [letrozole], the “class according to the biopharmaceutical classification system (BCS)” value in series [1] is “first class”.

The values above are taken from patent US20220105058A1, “USE OF 3-O-SULFAMATE-16,16-DIMETHYL-D-HOMOEQUILENIN TO TREAT ONCOLOGICAL DISEASES” (priority 2018, published 2022).
